According to ChEMBL document CHEMBL1129916, “Topoisomerase II inhibitors. Synthetic hybridization of 4-quinolones and anthracyclines” (Bioorg Med Chem Lett, 1997):
The source made the active and inactive calls. No cut-off for these calls is given here.

How the values were obtained:
[1] = system: B16-F10; assay: In vitro inhibitory activity against B16F10 tumor cells; IA= Inactive; assay type: functional, cell-based, Mus musculus
[2] = system: Nucleic Acid; assay: Inhibitory against Escherichia coli derived DNA gyrase II as ability to induce strand breakage; IA means Inactive; assay type: nucleic-acid assay
[3] = In vitro activity in agar dilution-streak assay against Gram-negative bacteria at 100 ug/ml; IA means Inactive; assay type: functional
[4] = system: Bacteria; assay: In vitro activity in agar dilution-streak assay against Gram-positive bacteria at 100 ug/ml; IA means Inactive; assay type: functional, organism-based
[5] = system: HT-29; assay: In vitro inhibitory activity against HT-29 tumor cells; IA= inactive; assay type: functional, cell-based, Homo sapiens
[6] = system: P388; assay: In vitro inhibitory activity against P-388 tumor cells; IA= Inactive; assay type: functional, cell-based, Mus musculus
[7] = system: A549; assay: In vitro inhibitory activity against A549 tumor cell culture; IA= Inactive; assay type: functional, cell-based, Homo sapiens

| IC50 [1] | Activity [2] | IC50 [5] | IC50 [6] | IC50 [7] | SMILES | Activity [3] | Activity [4] |
| --- | --- | --- | --- | --- | --- | --- | --- |
| Not Active | inactive | Not Active | Not Active | Not Active | O=C1c2ccccc2C(=O)c2c(O)c3c(c(O)c21)C(=O)C(C(=O)O)CN3c1ccc(F)cc1 (stereo not drawn) | inactive | inactive |
| Not Active | inactive | Not Active | Not Active | Not Active | O=C1c2ccccc2C(=O)c2c(O)c3c(c(O)c21)C(=O)C(C(=O)O)CN3C1CC1 (stereo not drawn) | inactive | inactive |
| – | – | – | – | – | O=C(O)c1cn(C2CC2)c2cc(N3CCNCC3)c(F)cc2c1=O | inactive | inactive |
| Not Active | inactive | Not Active | Not Active | Not Active | CCN1CC(C(=O)O)C(=O)c2c(O)c3c(c(O)c21)C(=O)c1ccccc1C3=O (stereo not drawn) | inactive | inactive |
